Among the test systems are UACC-257; M14; OVCAR-4; SF-268; DMS-114; HCT-15; CAKI-1; SK-MEL-2; 786-0; DMS-273; Malme-3M; SNB-78; HCT-116; CCRF-CEM; SNB-19; UACC-62; XF498; MDA-N; MDA-MB-435; T47D.
What all share (test): DTP human tumour cell line panel, 48 h

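All cell lines were grown in 96-well plates and treated with compound for 48 hours. GI50 = concentration required for 50% inhibition of growth.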 Calls of active or inactive are those of the source. Rule as the data show it: active = GI50 up to about 1.1 µM and inactive = higher. Where only a bound is given, the exact number is not on record here.

For `O=C1Cc2c([nH]c3ccccc23)-c2cc(Br)ccc2N1`, the GI50 with UACC-257 was > 100 µM (inactive); in the test on M14, > 100 µM (inactive); in the test on OVCAR-4, > 100 µM (inactive); with SF-268 it was > 100 µM (inactive); in the test on DMS-114 it was > 100 µM (inactive); in the test on HCT-15, over 100 µM. In addition, the GI50 in the test with CAKI-1, in the test with SK-MEL-2, in the test on 786-0, with DMS-273, with Malme-3M and in the test with SNB-78 was > 100 µM (inactive) throughout. For the same compound, the GI50 with HCT-116, in the test with CCRF-CEM and in the test on SNB-19 was > 100 µM (inactive) each time.
For the compound `CCOC(=O)C12CCCC1(O)N(NC(=O)c1ccccc1)C(C)=C2C(=O)OC` (stereo not given), the GI50 was > 100 µM (inactive) in the test on UACC-257; > 100 µM (inactive) in the test with M14; > 100 µM (inactive) with UACC-62; > 100 µM (inactive) with OVCAR-4; > 100 µM (inactive) with SF-268; over 100 µM in the test on HCT-15. The GI50 in the test with CAKI-1, with SK-MEL-2, in the test on 786-0, in the test on DMS-273, in the test on Malme-3M and in the test with SNB-78 was > 100 µM (inactive) each time. Besides, the GI50 with HCT-116, in the test on CCRF-CEM and with SNB-19 was > 100 µM (inactive) in each case.
On to `O=C1CSc2ccncc2N1`, for which the GI50 with UACC-257, with M14, in the test on UACC-62, in the test with OVCAR-4, in the test with SF-268 and in the test on DMS-114 was > 100 µM (inactive) each time. For the same compound, the GI50 in the test with HCT-15 was over 100 µM; with XF498, > 100 µM (inactive); in the test on CAKI-1 it was > 100 µM (inactive); in the test on SK-MEL-2, > 100 µM (inactive); with 786-0, > 100 µM (inactive); in the test on DMS-273 it was > 100 µM (inactive). Also, the GI50 is > 100 µM (inactive) in the test on Malme-3M, > 100 µM (inactive) in the test on HCT-116, > 100 µM (inactive) in the test on CCRF-CEM and 8.93 µM (inactive) in the test with SNB-19.
As to `COc1cc2c(oc(=O)c3c4oc([Si](C)(C)C)cc4cc(OC)c23)c2cccc(O)c12`, the GI50 with UACC-257, with M14, with UACC-62, with OVCAR-4, in the test with SF-268 and with DMS-114 was > 100 µM (inactive) in each case. Further, the GI50 was over 100 µM in the test on HCT-15; > 100 µM (inactive) in the test with XF498; > 100 µM (inactive) with CAKI-1; > 100 µM (inactive) with SK-MEL-2; > 100 µM (inactive) with 786-0; > 100 µM (inactive) in the test on DMS-273. Further, the GI50 with Malme-3M, in the test on HCT-116, in the test on CCRF-CEM and in the test with SNB-19 was > 100 µM (inactive) throughout.
Consider `O=C1CCC(=O)C1=NNc1cc(Cl)cc(Cl)c1`, for which the GI50 is > 100 µM (inactive) in the test on UACC-257; > 100 µM (inactive) with M14; > 100 µM (inactive) in the test on UACC-62; > 100 µM (inactive) in the test with OVCAR-4; > 100 µM (inactive) in the test with SF-268; 98.2 µM (inactive) in the test on DMS-114. Also, the GI50 with HCT-15 is 55.8 µM; in the test on CAKI-1, > 100 µM (inactive); in the test on SK-MEL-2, > 100 µM (inactive); with 786-0, > 100 µM (inactive); in the test with DMS-273, > 100 µM (inactive); with Malme-3M it was > 100 µM (inactive). Further, the GI50 in the test with SNB-78 was > 100 µM (inactive); in the test on HCT-116 it was 76.4 µM (inactive); with CCRF-CEM it was 47.8 µM (inactive); in the test on SNB-19, > 100 µM (inactive).
Turning to `COc1ccc2c(c1)C(O)(C(F)(F)F)c1cc(C(=O)C(F)(F)F)c3ccccc3c1N2` (stereo not given), the GI50 in the test with UACC-257 is 13.5 µM (inactive); in the test with M14 it was 5.33 µM (inactive); in the test with UACC-62 it was 4.46 µM (inactive); with OVCAR-4 it was 10.5 µM (inactive); in the test with SF-268, 10.2 µM (inactive); in the test with DMS-114 it was 10 µM (inactive). Also, the GI50 in the test with HCT-15 is 7.35 µM; in the test on CAKI-1 it was 13.7 µM (inactive); in the test with SK-MEL-2, 12.2 µM (inactive); in the test with 786-0, 13.5 µM (inactive); in the test on DMS-273, 11 µM (inactive); in the test on CCRF-CEM it was 7.94 µM (inactive). In the test with SNB-19, the GI50 was 16 µM (inactive).
As for `O=C(Nc1ccccc1[N+](=O)[O-])/C(=N/Nc1cccc(Cl)c1)c1c(O)c2ccccc2oc1=O`, the GI50 with UACC-257 was 41.2 µM (inactive); in the test with M14 it was > 100 µM (inactive); with UACC-62, 42.2 µM (inactive); in the test on OVCAR-4, > 100 µM (inactive); with SF-268, 28.9 µM (inactive); in the test with DMS-114 it was 16.2 µM (inactive). Moreover, the 50% growth inhibitory concentration (GI50) in the test on HCT-15 is 58.1 µM; in the test with CAKI-1, > 100 µM (inactive); in the test with SK-MEL-2, > 100 µM (inactive); in the test on 786-0 it was > 100 µM (inactive); with DMS-273, 29.6 µM (inactive); with Malme-3M, 97.9 µM (inactive). For the same compound, the results for the GI50 with HCT-116, in the test with CCRF-CEM and in the test with SNB-19 were 22.9 µM (inactive), 14.4 µM (inactive) and > 100 µM (inactive), respectively.
For `COc1ccc2[nH]c3c(cnn4cnnc34)c2c1`, the GI50 in the test on UACC-257, with M14, in the test with UACC-62, with OVCAR-4, in the test on SF-268 and with DMS-114 was > 100 µM (inactive) each time. For the same compound, the GI50 is over 100 µM in the test with HCT-15; > 100 µM (inactive) in the test on CAKI-1; > 100 µM (inactive) in the test on SK-MEL-2; > 100 µM (inactive) in the test on 786-0; > 100 µM (inactive) in the test with DMS-273; > 100 µM (inactive) in the test with Malme-3M. Besides, the GI50 with CCRF-CEM and in the test with SNB-19 was > 100 µM (inactive) each time.
Turning to `CCOC(=O)c1sc2c(C(=O)OCC)n3cc(C)cc(C)c3c2c1O`, the GI50 in the test with M14 is > 100 µM (inactive); with UACC-62, > 100 µM (inactive); in the test on OVCAR-4, > 100 µM (inactive); in the test with SF-268, > 100 µM (inactive); in the test with DMS-114, 37.6 µM (inactive); with CAKI-1, > 100 µM (inactive). The GI50 in the test on SK-MEL-2, in the test on 786-0, with DMS-273, with Malme-3M, in the test with SNB-78 and in the test with HCT-116 was > 100 µM (inactive) throughout. Also, the GI50 in the test with CCRF-CEM and in the test with SNB-19 was > 100 µM (inactive) each time.
As for `COC1CC(OC)C(O)C(CO)O1` (stereo not given), the GI50 is > 100 µM (inactive) in the test on UACC-257; > 100 µM (inactive) with M14; > 100 µM (inactive) with UACC-62; > 100 µM (inactive) in the test on OVCAR-4; over 100 µM in the test on HCT-15; > 100 µM (inactive) in the test on XF498. The GI50 in the test with SK-MEL-2, in the test with 786-0, in the test on Malme-3M, in the test on SNB-78, in the test on HCT-116 and in the test with CCRF-CEM was > 100 µM (inactive) in each case.
With `COc1nc(NC2OC(COC(C)=O)C(OC(C)=O)C(OC(C)=O)C2OC(C)=O)c2c(OC(C)=O)c(C)c(=O)oc2n1` (stereo not given), the GI50 was > 100 µM (inactive) with UACC-257; > 100 µM (inactive) with M14; > 100 µM (inactive) in the test on UACC-62; > 100 µM (inactive) with OVCAR-4; > 100 µM (inactive) in the test with DMS-114; over 100 µM in the test with HCT-15. Further, the GI50 in the test with XF498, with CAKI-1, with SK-MEL-2, in the test with 786-0, in the test on Malme-3M and in the test on SNB-78 was > 100 µM (inactive) in each case. Also, the GI50 in the test on HCT-116, in the test on CCRF-CEM and with SNB-19 was > 100 µM (inactive) each time.
As to `CCCCN(CC)C(=O)C(=O)Cc1nc2ccc(C(=O)c3ccccc3)cc2nc1O`, the GI50 was > 100 µM (inactive) with UACC-257; > 100 µM (inactive) in the test with M14; 66.5 µM (inactive) with UACC-62; > 100 µM (inactive) in the test with OVCAR-4; > 100 µM (inactive) with SF-268; 53.7 µM (inactive) with DMS-114. In addition, the GI50 with HCT-15 is 67.1 µM; with CAKI-1 it was 54.3 µM (inactive); with 786-0, > 100 µM (inactive); with DMS-273 it was 53 µM (inactive); in the test on SNB-78, 49.5 µM (inactive); in the test with HCT-116, > 100 µM (inactive). In addition, the figures for the GI50 with CCRF-CEM and in the test with SNB-19 were 27.2 µM (inactive) and 98.6 µM (inactive), respectively.
In the case of `COC(=O)/C=C(\C(=O)OC)c1c2c3c(cc(OC)c(OC)c3c3ccccc13)CCN2C`, the GI50 in the test with UACC-257 was 30.5 µM (inactive); with M14, 78.7 µM (inactive); in the test with UACC-62, 24.2 µM (inactive); in the test with SF-268, > 100 µM (inactive); with DMS-114 it was 27.9 µM (inactive); in the test on HCT-15 it was 22.3 µM. In addition, the GI50 with SK-MEL-2 was 35.4 µM (inactive); in the test on 786-0, 70.8 µM (inactive); in the test on DMS-273 it was 22.6 µM (inactive); in the test on Malme-3M, 33.7 µM (inactive); in the test on SNB-78, 37.8 µM (inactive); in the test with HCT-116 it was 37.4 µM (inactive). Moreover, the values for the GI50 in the test on CCRF-CEM and in the test with SNB-19 were 24 µM (inactive) and 35.5 µM (inactive), respectively.
Consider `Cc1ccccc1NC(=O)C(=O)Cc1cnc2ccccc2n1`, for which the GI50 in the test with UACC-257, with MDA-N, with M14, with MDA-MB-435, with UACC-62 and in the test on OVCAR-4 was > 100 µM (inactive) in each case. Besides, the GI50 with SF-268 was > 100 µM (inactive); in the test with HCT-15, over 100 µM; in the test with CAKI-1 it was > 100 µM (inactive); in the test on T47D, > 100 µM (inactive); in the test on SK-MEL-2 it was > 100 µM (inactive); with 786-0, > 100 µM (inactive). The GI50 with Malme-3M was > 100 µM (inactive); with HCT-116, > 100 µM (inactive); in the test with CCRF-CEM, 69.8 µM (inactive); with SNB-19 it was > 100 µM (inactive).

Source of the values: ChEMBL document CHEMBL1201862, “PubChem BioAssay data set” (2004).
